In patent US20230348426A1, “OXOPYRROLIDINE FPR2 AGONISTS” (Bristol-Myers Squibb Company, priority 2020, published 2023):

Tests used:
human FPR1 = human FPR1 (Homo sapiens (Human), UniProt P21462); assay: FPR1 cyclic adenosine monophosphate (cAMP) assay; assay type: cell-based; conditions: CHO cells overexpressing human FPR1; forskolin 10 µM; inhibition of cAMP production; read-out: hFPR1 cAMP EC50
Excerpt: (§1) N-formyl peptide receptors (FPRs) are a family of chemo attractant receptors that facilitate leukocyte response during inflammation. FPRs belong to the seven-transmembrane G protein-coupled receptor superfamily and are linked to inhibitory G-proteins (Gi). Three family members (FPR1, FPR2 and FPR3) have been identified in humans and are predominantly found in myeloid cells with varied distribution and have also been reported in multiple organs and tissues. After agonist binding, the FPRs activate a multitude of physiological pathways, such as intra cellular signaling transduction, Ca^2+ mobilization and transcription. The family interacts with a diverse set of ligands that includes proteins, polypeptides and fatty acid metabolites which activate both pro-inflammatory and pro-resolution downstream responses. FPR2 and FPR1 Cyclic Adenosine Monophosphate (cAMP) Assays were used to measure the activity of the compounds in this patent.
FPR2 and FPR1 Cyclic Adenosine Monophosphate (cAMP) Assays. A mixture of forskolin (5 µM final for FPR2 or 10 µM final for FPR1) and IBMX (200 µM final) were added to 384-well Proxiplates (Perkin-Elmer) pre-dotted with test compounds in DMSO (1% final) at final concentrations in the range of 0.020 nM to 100 µM. Chinese Hamster Ovary cells (CHO) overexpressing human FPR1 or human FPR2 receptors were cultured in F-12 (Ham’s) medium supplemented with 10% qualified FBS, 250 µg/ml zeocin and 300 µg/ml hygromycin (Life Technologies). Reactions were initiated by adding 2,000 human FPR2 cells per well or 4,000 human FPR1 cells per well in Dulbecco’s PBS (with calcium and magnesium) (Life Technologies) supplemented with 0.1% BSA (Perkin-Elmer). The reaction mixtures were incubated for 30 min at room temperature. The level of intracellular cAMP was determined using the HTRF HiRange cAMP assay reagent kit (Cisbio) according to manufacturer’s instruction. Solutions of cryptate conjugated anti-cAMP and d2 flurorophore-labelled cAMP were made in a supplied lysis buffer separately. Upon completion of the reaction, the cells were lysed with equal volume of the d2-cAMP solution and anti-cAMP solution. […] The potency and activity of a compound to inhibit cAMP production was then determined by fitting to a 4-parametric logistic equation from a plot of cAMP level versus compound concentrations.

human FPR2 = human FPR2 (Homo sapiens (Human), UniProt P25090); assay: FPR2 cyclic adenosine monophosphate (cAMP) assay; assay type: cell-based; conditions: CHO cells overexpressing human FPR2; forskolin 5 µM; inhibition of cAMP production; read-out: hFPR2 cAMP2 EC50
Chain of human FPR2 (P25090 whole entry): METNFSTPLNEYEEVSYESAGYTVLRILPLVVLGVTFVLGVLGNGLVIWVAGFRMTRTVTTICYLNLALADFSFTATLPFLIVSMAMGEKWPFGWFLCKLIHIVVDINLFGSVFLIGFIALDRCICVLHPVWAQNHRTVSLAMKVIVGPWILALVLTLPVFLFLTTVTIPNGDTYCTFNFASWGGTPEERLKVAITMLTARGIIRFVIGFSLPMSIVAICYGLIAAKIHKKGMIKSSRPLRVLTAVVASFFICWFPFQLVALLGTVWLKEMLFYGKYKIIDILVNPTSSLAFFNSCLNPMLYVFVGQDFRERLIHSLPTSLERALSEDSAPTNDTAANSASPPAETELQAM
Excerpt: as §1
FPR2 and FPR1 Cyclic Adenosine Monophosphate (cAMP) Assays. A mixture of forskolin (5 µM final for FPR2 or 10 µM final for FPR1) and IBMX (200 µM final) were added to 384-well Proxiplates (Perkin-Elmer) pre-dotted with test compounds in DMSO (1% final) at final concentrations in the range of 0.020 nM to 100 µM. Chinese Hamster Ovary cells (CHO) overexpressing human FPR1 or human FPR2 receptors were cultured in F-12 (Ham’s) medium supplemented with 10% qualified FBS, 250 µg/ml zeocin and 300 µg/ml hygromycin (Life Technologies). Reactions were initiated by adding 2,000 human FPR2 cells per well or 4,000 human FPR1 cells per well in Dulbecco’s PBS (with calcium and magnesium) (Life Technologies) supplemented with 0.1% BSA (Perkin-Elmer). The reaction mixtures were incubated for 30 min at room temperature. The level of intracellular cAMP was determined using the HTRF HiRange cAMP assay reagent kit (Cisbio) according to manufacturer’s instruction. Solutions of cryptate conjugated anti-cAMP and d2 flurorophore-labelled cAMP were made in a supplied lysis buffer separately. Upon completion of the reaction, the cells were lysed with equal volume of the d2-cAMP solution and anti-cAMP solution. After a 1-h room temperature incubation, time-resolved fluorescence intensity was measured using the Envision (Perkin-Elmer) at 400 nm excitation and dual emission at 590 nm and 665 nm. A calibration curve was constructed with an external cAMP standard at concentrations ranging from 1 µM to 0.1 pM by plotting the fluorescent intensity ratio from 665 nm emission to the intensity from the 590 nm emission against cAMP concentrations. The potency and activity of a compound to inhibit cAMP production was then determined by fitting to a 4-parametric logistic equation from a plot of cAMP level versus compound concentrations.

Chain of human FPR1 (P21462 whole entry): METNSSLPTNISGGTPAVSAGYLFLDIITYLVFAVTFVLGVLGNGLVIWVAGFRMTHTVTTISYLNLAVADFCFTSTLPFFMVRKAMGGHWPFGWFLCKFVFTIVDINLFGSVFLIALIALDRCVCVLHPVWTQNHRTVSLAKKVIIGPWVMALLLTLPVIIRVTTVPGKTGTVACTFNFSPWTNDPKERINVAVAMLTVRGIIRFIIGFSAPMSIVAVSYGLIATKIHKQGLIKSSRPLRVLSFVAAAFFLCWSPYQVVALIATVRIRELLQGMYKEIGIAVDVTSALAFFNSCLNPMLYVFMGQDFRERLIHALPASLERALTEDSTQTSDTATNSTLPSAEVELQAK

Row | SMILES | EC50 (human FPR1) [nM] | EC50 (human FPR2) [nM]
1 | COCCn1cccc(N2C[C@@H](c3c(F)cc(OC)cc3F)[C@H](NC(=O)c3ccc(OC(F)F)cc3)C2=O)c1=O [Example 36] | 30 | 5.5
2 | COCCn1cccc(N2C[C@@H](c3c(F)cc(OC)cc3F)[C@H](NC(=O)c3ccc(OC(F)(F)F)cc3)C2=O)c1=O [Example 37] | 16 | 8.9
3 | CCn1cccc(N2C[C@@H](c3c(F)cc(OC)cc3F)[C@H](NC(=O)c3ccc(OC(F)F)cc3)C2=O)c1=O [Example 38] | 18 | 5.1
4 | COc1cc(N2C[C@@H](c3c(F)cc(OC)cc3F)[C@H](NC(=O)c3ccc(Cl)cc3)C2=O)nc(N2C[C@@H]3C[C@H]2CN3C)c1 [Example 40] | 2600 | 0.6
5 | COCC(CN)n1cccc(N2C[C@@H](c3c(F)cc(OC)cc3F)[C@H](NC(=O)c3ccc(OC(F)F)cc3)C2=O)c1=O (some centres unmarked) [Example 41] | 110 | 0.6
6 | COc1cc(F)c([C@@H]2CN(c3nc(N4C[C@@H](C)N(C)[C@@H](C)C4)ccc3F)C(=O)[C@H]2NC(=O)c2ccc(OC(F)F)cc2)c(F)c1 [Example 42] | 730 | 0.7
7 | COCC(CN)n1cccc(N2C[C@@H](c3c(F)cc(OC)cc3F)[C@H](NC(=O)c3ccc(OC(F)F)cc3)C2=O)c1=O (some centres unmarked) [Example 44] | 10 | 1
8 | COc1ccc([C@@H]2CN(c3cccn(CC(F)F)c3=O)C(=O)[C@H]2NC(=O)c2ccc(OC(F)(F)F)cc2)c(F)c1 [Example 45] | 4.3 | 1
9 | COc1cc(F)c([C@@H]2CN(c3nc(N4CCC4=O)ccc3F)C(=O)[C@H]2NC(=O)c2ccc(OC(F)F)cc2)c(F)c1 [Example 46] | 2 | 1
10 | COc1cc(F)c([C@@H]2CN(c3cccn(CC(O)C(F)(F)F)c3=O)C(=O)[C@H]2NC(=O)c2ccc(OC(F)(F)F)cc2)c(F)c1 (some centres unmarked) [Example 47] | 150 | 1.1
11 | COc1cc(F)c([C@@H]2CN(c3cccc(N4C[C@@H](C)N(C)[C@@H](C)C4)n3)C(=O)[C@H]2NC(=O)c2ccc(OC(F)F)cc2)c(F)c1 [Example 48] | 940 | 1.1
12 | COc1cc(N2C[C@@H]3C[C@H]2CN3C)nc(N2C(=O)[C@@H](NC(=O)c3ccc(Cl)cc3)[C@H](c3c(F)cc(OC)cc3F)[C@H]2C)c1 [Example 49] | 2000 | 1.1
13 | COc1cc(F)c([C@@H]2CN(c3nc(N4C[C@H]5C[C@@H]4CN5C)ccc3F)C(=O)[C@H]2NC(=O)c2ccc(OC(F)F)cc2)c(F)c1 [Example 50] | 1700 | 1.2
14 | COc1cc(N2C[C@@H]3C[C@H]2CN3C)nc(N2C(=O)[C@@H](NC(=O)c3ccc(OC(F)F)cc3)[C@H](c3c(F)cc(OC)cc3F)[C@@H]2C)c1 [Example 51] | 5500 | 1.2
15 | COc1cc(F)c([C@@H]2CN(c3cccn(C(F)F)c3=O)C(=O)[C@H]2NC(=O)c2ccc(OC(F)F)cc2)c(F)c1 [Example 52] | 27 | 1.3
16 | COCCn1cccc(N2C[C@@H](c3ccc(OC)cc3F)[C@H](NC(=O)c3ccc(OC(F)(F)F)cc3)C2=O)c1=O [Example 53] | 2.3 | 1.4
17 | COc1cc(F)c([C@@H]2CN(c3nc(N4CCN(C)CC4)ccc3F)C(=O)[C@H]2NC(=O)c2ccc(OC(F)F)cc2)c(F)c1 [Example 54] | 820 | 1.4
18 | COc1ccc([C@@H]2CN(c3cccn(CCC(F)(F)F)c3=O)C(=O)[C@H]2NC(=O)c2ccc(OC(F)F)cc2)c(F)c1 [Example 55] | 8.6 | 1.4
19 | COCCn1cccc(N2C[C@@H](c3ccc(OC)cc3F)[C@H](NC(=O)c3ccc(OC(F)(F)F)cc3)C2=O)c1=O [Example 56] | 4 | 1.4

Row | SMILES | EC50 (human FPR1) [nM] | EC50 (human FPR2) [nM]
20 | COc1ccc([C@@H]2CN(c3c(C)ccn(CC4CC4)c3=O)C(=O)[C@H]2NC(=O)c2ccc(OC(F)(F)F)cc2)cc1 [Example 57] | 0.066 | 1.4
21 | COc1cc(F)c([C@@H]2CN(c3nc(N4CCOCC4=O)ccc3F)C(=O)[C@H]2NC(=O)c2ccc(OC(F)(F)F)cc2)c(F)c1 [Example 58] | 3.5 | 1.5
22 | COc1ccc([C@@H]2CN(c3cccn(CC(F)F)c3=O)C(=O)[C@H]2NC(=O)c2ccc(OC(F)F)cc2)c(F)c1 [Example 59] | 6.6 | 1.5
23 | COCCn1cccc(N2C[C@@H](c3ccc(OC)cc3)[C@H](NC(=O)c3ccc(OC(F)(F)F)cc3)C2=O)c1=O [Example 60] | 2.6 | 1.6
24 | COc1cc(F)c([C@@H]2CN(c3nc(NC4CCOC4)ccc3F)C(=O)[C@H]2NC(=O)c2ccc(OC(F)(F)F)cc2)c(F)c1 (some centres unmarked) [Example 62] | 110 | 1.6
25 | COc1ccc([C@@H]2CN(c3cccn(CCO)c3=O)C(=O)[C@H]2NC(=O)c2ccc(OC(F)(F)F)cc2)c(F)c1 [Example 63] | 16 | 1.7
26 | COc1ccc([C@@H]2CN(c3cccn(CCO)c3=O)C(=O)[C@H]2NC(=O)c2ccc(OC(F)(F)F)cc2)cc1 [Example 64] | 7.2 | 1.7
27 | COc1cc(F)c([C@@H]2CN(c3ccnc(N4C[C@@H]5C[C@H]4CN5C)c3C(F)(F)F)C(=O)[C@H]2NC(=O)c2ccc(OC(F)F)cc2)c(F)c1 [Example 65] | 180 | 1.7
28 | COc1cc(F)c([C@@H]2CN(c3nc(N4C(=O)C5CCCC54)ccc3F)C(=O)[C@H]2NC(=O)c2ccc(OC(F)F)cc2)c(F)c1 (some centres unmarked) [Example 66] | 49 | 1.8
29 | CCn1cccc(N2C[C@@H](c3ccc(Cl)cc3)[C@H](NC(=O)c3ccc(OC(F)(F)F)cc3)C2=O)c1=O [Example 67] | 4.4 | 1.8
30 | O=C(N[C@@H]1C(=O)N(c2cccn(CC(F)F)c2=O)C[C@H]1c1ccc(Cl)cc1)c1ccc(OC(F)(F)F)cc1 [Example 69] | 4.2 | 1.9
31 | COc1cc(N2C[C@@H]3C[C@H]2CN3C)nc(N2C(=O)[C@@H](NC(=O)c3ccc(Cl)cc3)[C@H](c3c(F)cc(OC)cc3F)[C@@H]2C)c1 [Example 70] | > 10000 | 1.9
32 | COc1cc(N2C[C@@H]3C[C@H]2CN3C)nc(N2C(=O)[C@@H](NC(=O)c3ccc(OC(F)F)cc3)[C@H](c3c(F)cc(OC)cc3F)[C@H]2C)c1 [Example 71] | 290 | 1.9
33 | O=C(N[C@@H]1C(=O)N(c2cccn(CCC(F)(F)F)c2=O)C[C@H]1c1ccc(Cl)cc1)c1ccc(OC(F)F)cc1 [Example 72] | 5.7 | 1.9
34 | O=C(N[C@@H]1C(=O)N(c2cccn(CCC(F)(F)F)c2=O)C[C@H]1c1ccc(Cl)cc1)c1ccc(OC(F)(F)F)cc1 [Example 73] | 3.2 | 1.9
35 | COCCn1cccc(N2C(=O)[C@@H](NC(=O)c3ccc(Cl)cc3)[C@H](c3c(F)cc(OC)cc3F)[C@@H]2C)c1=O [Example 74] | 94 | 1.9
36 | COc1ccc([C@@H]2CN(c3cccn(CCC(F)(F)F)c3=O)C(=O)[C@H]2NC(=O)c2ccc(OC(F)(F)F)cc2)c(F)c1 [Example 75] | 2.8 | 2
37 | COc1cc(F)c([C@H]2[C@H](NC(=O)c3ccc(OC(F)F)cc3)C(=O)N(c3ncccc3OC)[C@H]2C)c(F)c1 [Example 77] | 170 | 2
